Results on 27 compounds are retold here after patent US7074798B2, “Xanthine derivative and DPPIV inhibitor” (Eisai Co., Ltd, priority 2002, dated 2006).

Structures can show the parent of a compound that is named as a salt.

One experiment concerns male C57BL/6N mouse. The experiment can be described thus: Effect on glucose tolerance of normal mouse (oral glucose loading). Type of experiment: in vivo. The conditions noted are these: 2 h, 0.3 mg/kg oral, 30 min before glucose 2 g/kg, AUC0-120, 0.5% MC = 100%, NVP DPP728 10 mg/kg = 0%, lower = better, read-out: Improvement degree of glucose tolerance. Here is the method:
Effect on Glucose Tolerance of Normal Mouse
male C57BL/6N mouse (purchased from CHARLES RIVER JAPAN, INC.)
A suspension of the test compound and NVP DPP728 or 0.5% MC solution (solvent control group) were orally administered at a dose of 10 mL/kg, and after 30 minutes, glucose solution was orally administered at a dose of 10 mL/kg. Glucose was orally administered at a dose of 2 g/kg.
Immediately before the administration of the test substance and NVP DPP728, immediately before the administration of the glucose solution and at 30 minutes, 60 minutes, and 120 minutes after the administration, a tail vein of the mouse was injured to slightly bleed by a razor under no anesthesia. 10 μl of blood was collected and was immediately mixed with 0.6M perchloric acid (140 μl). Glucose in the supernatant obtained by centrifugation (1500 g, 10 minutes, 4° C., refrigerated centrifuge GS-6KR, Beckman Instruments, Inc.) was measured using Glucose CII-Test Wako (Wako Pure Chemical Industries, Ltd.).
Area under the curve of blood glucose level-time (AUC0-120; Area Under the Curve) from the time of administration of glucose to 120 minutes after administration was calculated for respective administration groups, i.e., 0.5% MC solution, NVP DPP728, and the test compounds. Taking the AUC0-120 of the 0.5% MC solution administration group as 100% and the AUC0-120 of NVP DPP728 (10 mg/kg) administration group as 0%, the improvement degree of the glucose tolerance of a test compound was calculated using the following formula: Improvement degree of the glucose tolerance (%)=(AUC0-120 of the test compound−AUC0-120 of the NVP DPP728 (10 mg/kg) administration group)/(AUC0-120 of the 0.5% MC solution administration group−AUC0-120 of the NVP DPP728 (10 mg/kg) administration group)×100. • The lower the % value, the greater the improvement degree of the glucose tolerance will be.
Turning to `CC#CCn1c(N2CCNCC2)nc2c1c(=O)n(CC(=O)c1ccccc1)c(=O)n2C` [Example 30, 7-(2-Butynyl)-3-methyl-1-(2-oxo-2-phenylethyl)-8-(piperazin-1-yl)-3,7-dihydropurine-2,6-dione trifluoroacetate], the response vs control in vivo at 0.3 mg/kg came to 49.4%.

The same experiment, now with this note: 2 h, 1 mg/kg oral, 30 min before glucose 2 g/kg, AUC0-120, 0.5% MC = 100%, NVP DPP728 10 mg/kg = 0%, lower = better, read-out: Improvement degree of glucose tolerance.
For the compound `CC#CCn1c(N2CCNCC2)nc2c1c(=O)[nH]c(=O)n2C` [Example 14, 7-(2-Butynyl)-3-methyl-8-(piperazin-1-yl)-3,7-dihydropurine-2,6-dione], the response vs control in vivo at 1 mg/kg came to 41.9%. The same measure, in the same setting: the value for `CC#CCn1c(N2CCNCC2)nc2c1c(=O)n(CC(=O)c1ccccc1)c(=O)n2C` [Example 30, 7-(2-Butynyl)-3-methyl-1-(2-oxo-2-phenylethyl)-8-(piperazin-1-yl)-3,7-dihydropurine-2,6-dione trifluoroacetate] was -14.3%; that for `CC#CCn1c(N2CCNCC2)nc2c1c(=O)n(Cc1ccccc1C#N)c(=O)n2C` [Example 39, 2-[7-(2-Butynyl)-3-methyl-2,6-dioxo-8-(piperazin-1-yl)-2,3,6,7-tetrahydropurin-1-ylmethyl]-benzonitrile trifluoroacetate] was 45.5%; that for `C=Cc1ccccc1-n1c(N2CCNCC2)nc2c1c(=O)[nH]c(=O)n2C` [Example 174, 7-(2-Vinylphenyl)-3-methyl-8-(piperazin-1-yl)-3,7-dihydropurine-2,6-dione] was 24.3%.

Staying with this experiment, now noted: 2 h, 3 mg/kg oral, 30 min before glucose 2 g/kg, AUC0-120, 0.5% MC = 100%, NVP DPP728 10 mg/kg = 0%, lower = better, read-out: Improvement degree of glucose tolerance.
`CC#CCn1c(N2CCNCC2)nc2c1c(=O)n(C)c(=O)n2C` [Example 10, 7-(2-Butynyl)-1,3-dimethyl-8-(piperazin-1-yl)-3,7-dihydropurine-2,6-dione]: the response vs control in vivo at 3 mg/kg came to 0.5%.

As for `CC#CCn1c(N2CCNCC2)nc2c1c(=O)n(CC(=O)OC)c(=O)n2C` [Example 15, [7-(2-Butynyl)-3-methyl-2,6-dioxo-8-(piperazin-1-yl)-2,3,6,7-tetrahydropurin-1-yl]acetic acid methyl ester trifluoroacetate], the response vs control in vivo at 3 mg/kg was -17.2%.

For `CC#CCn1c(N2CCNCC2)nc2c1c(=O)n(CCOCC)c(=O)n2C` [Example 18, 7-(2-Butynyl)-1-(2-ethoxyethyl)-3-methyl-8-(piperazin-1-yl)-3,7-dihydropurine-2,6-dione trifluoroacetate], the response vs control in vivo at 3 mg/kg was determined as 9.5%. Still for that read-out and setting: as for `C#CCn1c(=O)c2c(nc(N3CCNCC3)n2CC#CC)n(C)c1=O` [Example 19, 7-(2-Butynyl)-3-methyl-8-(piperazin-1-yl)-1-(2-propynyl)-3,7-dihydropurine-2,6-dione trifluoroacetate], the figure is -13.1%. Same read-out and setting: as for `CC#CCn1c(=O)c2c(nc(N3CCNCC3)n2CC#CC)n(C)c1=O` [Example 20, 1,7-Bis(2-butynyl)-3-methyl-8-(piperazin-1-yl)-3,7-dihydropurine-2,6-dione trifluoroacetate], the figure is 5%; as for `CC#CCn1c(N2CCNCC2)nc2c1c(=O)n(CC#N)c(=O)n2C` [Example 21, [7-(2-Butynyl)-3-methyl-2,6-dioxo-8-(piperazin-1-yl)-2,3,6,7-tetrahydropurin-1-yl]acetonitrile trifluoroacetate], 4.8%; as for `COc1ccccc1-n1c(N2CCNCC2)nc2c1c(=O)n(C)c(=O)n2C` [Example 123, 7-(2-Methoxyphenyl)-1,3-dimethyl-8-(piperazin-1-yl)-3,7-dihydropurine-2,6-dione trifluoroacetate], 17.9%.

For the compound `C=Cc1ccccc1-n1c(N2CCNCC2)nc2c1c(=O)n(C)c(=O)n2C` [Example 147, 7-(2-Vinylphenyl)-1,3-dimethyl-8-(piperazin-1-yl)-3,7-dihydropurine-2,6-dione trifluoroacetate], the response vs control in vivo at 3 mg/kg came to 13%. As to `Cn1c(=O)[nH]c(=O)c2c1nc(N1CCNCC1)n2-c1ccccc1Cl` [Example 156, 7-(2-Chlorophenyl)-3-methyl-8-(piperazin-1-yl)-3,7-dihydropurine-2,6-dione trifluoroacetate], the response vs control in vivo at 3 mg/kg came to 0.9%. Still for that read-out and setting: as for `COc1ccccc1-n1c(N2CCNCC2)nc2c1c(=O)n(CC#N)c(=O)n2C` [Example 166, [7-(2-Methoxyphenyl)-3-methyl-2,6-dioxo-8-(piperazin-1-yl)-2,3,6,7-tetrahydropurin-1-yl]acetonitrile trifluoroacetate], the figure is 16.1%. On to `C=Cc1ccccc1-n1c(N2CCNCC2)nc2c1c(=O)[nH]c(=O)n2C` [Example 174, 7-(2-Vinylphenyl)-3-methyl-8-(piperazin-1-yl)-3,7-dihydropurine-2,6-dione], for which the response vs control in vivo at 3 mg/kg was -9.1%.

In the case of `NC(=O)Cn1c(=O)[nH]c(=O)c2c1nc(N1CCNCC1)n2-c1ccccc1Cl` [Example 194, 2-[7-(2-Chlorophenyl)-2,6-dioxo-8-(piperazin-1-yl)-1,2,6,7-tetrahydropurin-3-yl]-acetamide trifluoroacetate], the response vs control in vivo at 3 mg/kg was found to be 9.9%. Same read-out and setting: the value for `CC#CCn1c(N2CCNCC2)nc2c1c(=O)n(C)c(=O)n2CC` [Example 216, 7-(2-Butynyl)-3-ethyl-1-methyl-8-(piperazin-1-yl)-3,7-dihydropurine-2,6-dione trifluoroacetate] was -5%. On the same count and under the same terms, as for `CC#CCn1c(N2CCNCC2)nc2c1c(=O)n(C)c(=O)n2Cc1ccccc1` [Example 218, 7-(2-Butynyl)-3-benzyl-1-methyl-8-(piperazin-1-yl)-3,7-dihydropurine-2,6-dione trifluoroacetate], the figure is 16.8%; as for `CC#CCn1c(N2CCNCC2)nc2c1c(=O)n(C)c(=O)n2CC(=O)OC` [Example 219, [7-(2-Butynyl)-1-methyl-2,6-dioxo-8-(piperazin-1-yl)-1,2,6,7-tetrahydropurin-3-yl]acetic acid methyl ester trifluoroacetate], -1.4%; as for `CC#CCn1c(N2CCNCC2)nc2c1c(=O)n(C)c(=O)n2CC1CCCO1` (centres unmarked) [Example 226, 7-(2-Butynyl)-3-(2-tetrahydrofuranyl)methyl-1-methyl-8-(piperazin-1-yl)-3,7-dihydropurine-2,6-dione trifluoroacetate], -5.2%. Still for that read-out and setting: as for `CC#CCn1c(N2CCNCC2)nc2c1c(=O)n(C)c(=O)n2C(C(=O)OC)c1ccccc1` (centres unmarked) [Example 240, [7-(2-Butynyl)-1-methyl-2,6-dioxo-8-(piperazin-1-yl)-1,2,6,7-tetrahydropurin-3-yl]phenyl acetic acid methyl ester trifluoroacetate], the figure is -2.8%; as for `CC#CCn1c(N2CCNCC2)nc2c1c(=O)n(C)c(=O)n2CCC` [Example 243, 7-(2-Butynyl)-3-propyl-1-methyl-8-(piperazin-1-yl)-3,7-dihydropurine-2,6-dione trifluoroacetate], 8.4%. Turning to `CC#CCn1c(N2CCNCC2)nc2c1c(=O)n(C)c(=O)n2CC(=O)c1ccccc1` [Example 256, 7-(2-Butynyl)-3-(2-oxo-2-phenethyl)-1-methyl-8-(piperazin-1-yl)-3,7-dihydropurine-2,6-dione trifluoroacetate], the response vs control in vivo at 3 mg/kg was 2.4%. Same read-out and setting: as for `CC#CCn1c(N2CCNCC2)nc2c1c(=O)n(C)c(=O)n2C(C)C(=O)OCC` (centres unmarked) [Example 257, 2-[7-(2-Butynyl)-1-methyl-2,6-dioxo-8-(piperazin-1-yl)-1,2,6,7-tetrahydropurin-3-yl]propionic acid ethyl ester trifluoroacetate], the figure is 10.5%; as for `CC#CCn1c(N2CCNCC2)nc2c1c(=O)n(C)c(=O)n2C1CCOC1=O` (centres unmarked) [Example 263, 7-(2-Butynyl)-3-(2-oxo-tetrahydrofuran-3-yl)-1-methyl-8-(piperazin-1-yl)-3,7-dihydropurine-2,6-dione trifluoroacetate], 16.4%; as for `CC#CCn1c(N2CCNCC2)nc2c1c(=O)n(C)c(=O)n2CCOCC` [Example 266, 7-(2-Butynyl)-3-(2-ethoxyethyl)-1-methyl-8-(piperazin-1-yl)-3,7-dihydropurine-2,6-dione trifluoroacetate], -2.3%. Turning to `CC#CCn1c(N2CCNCC2)nc2c1c(=O)n(C)c(=O)n2C(C)C` [Example 270, 7-(2-Butynyl)-3-isopropyl-1-methyl-8-(piperazin-1-yl)-3,7-dihydropurine-2,6-dione trifluoroacetate], the response vs control in vivo at 3 mg/kg came to 7.3%. The same measure, in the same setting: as for `CC#CCn1c(N2CCNCC2)nc2c1c(=O)n(C)c(=O)n2CC(=O)C(C)(C)C` [Example 274, 7-(2-Butynyl)-3-(3,3-dimethyl-2-oxobutyl)-1-methyl-8-(piperazin-1-yl)-3,7-dihydropurine-2,6-dione trifluoroacetate], the figure is 1.9%.
